# Assay results: patent US9365621B2, “Method for preventing neoplastic transformation by inhibition of retinoblastoma protein inactivation” (The Regents of the University of California, priority 2012, dated 2016)
# No end group written: not given here.
# Target: T1, human Rb construct (residues 53-787) binding Human E2F1 transactivation domain (Homo sapiens, UniProt P06400, DEL245-267/DEL582-642/S780A)
# T1 construct: a human Rb construct (residues 53-787, delta245-267, delta582-642, S780A); made in house; host or cells: E. coli
# T1 sequence (P06400 with tags, fused parts or gaps DEL245-267/DEL582-642/S780A): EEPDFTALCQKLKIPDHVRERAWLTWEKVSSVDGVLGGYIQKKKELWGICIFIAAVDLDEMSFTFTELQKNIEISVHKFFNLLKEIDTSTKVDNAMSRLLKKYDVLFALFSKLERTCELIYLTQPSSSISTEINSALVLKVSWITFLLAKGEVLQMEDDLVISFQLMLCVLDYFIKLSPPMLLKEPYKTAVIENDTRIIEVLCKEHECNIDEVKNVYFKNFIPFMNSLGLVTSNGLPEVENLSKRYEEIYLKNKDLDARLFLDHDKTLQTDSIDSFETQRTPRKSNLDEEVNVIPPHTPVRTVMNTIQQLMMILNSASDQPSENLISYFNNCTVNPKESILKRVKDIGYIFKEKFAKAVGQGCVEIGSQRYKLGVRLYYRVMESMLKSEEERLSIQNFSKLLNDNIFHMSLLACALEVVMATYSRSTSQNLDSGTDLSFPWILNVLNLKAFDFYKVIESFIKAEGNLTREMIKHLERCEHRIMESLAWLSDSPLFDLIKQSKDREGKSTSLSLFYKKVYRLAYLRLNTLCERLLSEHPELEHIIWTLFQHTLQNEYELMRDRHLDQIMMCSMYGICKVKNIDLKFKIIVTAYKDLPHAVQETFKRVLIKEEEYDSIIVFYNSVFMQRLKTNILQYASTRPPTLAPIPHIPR
# Assay: Isothermal titration calorimetry of E2F binding to Rb (Rb activity)
# Settings: in vitro, phosphorylated Rb
# Description: The inventors have developed an assay for measuring the degree of binding between Rb and E2F. Rb inactivation corresponds to E2F binding inhibition. If you can prevent E2F binding to Rb, then you inactivate Rb, its tumor suppressing action decreases and the cell cycle continues from G1 to S and unregulated cell division occurs. Inactivation occurs upon Rb phosphorylation by Cdk. The inventors have discovered that in the presence of ‘LxCxE’ peptide, E2F inhibition is prevented upon phosphorylation.
# The […] peptide was made synthetically using standard peptide synthesis. Human E2F1 transactivation domain (residues […]) and a human Rb construct (residues 53-787, delta245-267, delta582-642, S780A) were produced recombinantly in E. coli and purified to homogeneity. Rb was phosphorylated with recombinant Cdk as described.
# Rb activity, defined as its ability to bind E2F, was assayed by isothermal titration calorimetry to measure quantitatively E2F binding affinity. About 50 micromolar (μm) Rb was used in the calorimetry cell and E2F was titrated in at a concentration of ˜1 mM. Standard protocols were used to determine Kd. In the experiment with the […] peptide, the peptide was first added to the cell before E2F to saturate Rb.
sequence,measurement,value
"DLYCYEQLN [DLYCYEQLN peptide, DLYCYEQLN]",inhibition of Rb inactivation (effect of phosphorylation on E2F-Rb binding),inhibits the weakening effect of phosphorylation on E2F-Rb binding
